Target: T1, tcTERT (Tribolium castaneum TERT) (Tribolium castaneum, UniProt Q0QHL8)
T1 sequence (Q0QHL8 1-596): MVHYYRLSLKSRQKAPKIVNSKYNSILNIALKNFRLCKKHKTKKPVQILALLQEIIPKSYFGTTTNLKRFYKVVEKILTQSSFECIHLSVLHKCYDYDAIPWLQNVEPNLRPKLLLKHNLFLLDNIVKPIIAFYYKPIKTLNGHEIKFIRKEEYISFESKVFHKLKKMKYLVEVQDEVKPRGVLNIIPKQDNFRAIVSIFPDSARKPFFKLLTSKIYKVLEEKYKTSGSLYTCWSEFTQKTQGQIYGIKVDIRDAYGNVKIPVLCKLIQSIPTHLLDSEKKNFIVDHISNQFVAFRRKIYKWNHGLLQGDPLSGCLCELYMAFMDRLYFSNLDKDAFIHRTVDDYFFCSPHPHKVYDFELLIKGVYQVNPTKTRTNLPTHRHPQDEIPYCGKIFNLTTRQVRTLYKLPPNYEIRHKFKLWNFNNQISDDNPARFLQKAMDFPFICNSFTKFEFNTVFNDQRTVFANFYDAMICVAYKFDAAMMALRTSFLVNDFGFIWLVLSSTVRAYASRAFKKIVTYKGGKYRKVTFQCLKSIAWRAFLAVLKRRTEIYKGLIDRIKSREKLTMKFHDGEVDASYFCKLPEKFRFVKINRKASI
Experiment: SPR with POPC:POPE:S1P
Format: binding

Kd: ~4.8 µM
SMILES: CCCCCCCCCCCCC/C=C/[C@@H](O)[C@@H](N)COP(=O)(O)O [S1P, sphingosine 1-phosphate]

Source: article PMC4492107 (Science signaling, 2015)
